{"source": "patent US11864558B2", "about": "“Herbicidal compositions containing N-phosphonomethyl glycine and an auxin herbicide” (Monsanto Technology LLC, priority 2004, dated 2024)", "origin": "cited, not measured here", "conditions": "acid form; 25° C."}
{"smiles": "O=C(O)CNCP(=O)(O)O", "note": "[glyphosate, N-phosphonomethylglycine]", "values": [{"measurement": "solubility in water", "result": 1.16, "unit": "% by weight"}]}
